The record followed here is the NIST ThermoML archive (doi:10.1016/j.fluid.2006.02.002).

± gives the expanded uncertainty stated by the source.

For this data set the following is noted: Liquid; ebulliometry.
In the case of `CNC(C)=O` [N-methylacetamide], the Normal boiling temperature was 204.92 ± 0.2 °C.
Under `CC(=O)O` [acetic acid] stands 117.70 ± 0.2 °C; under `O` [water], 99.81 ± 0.2 °C.
Under `CN1CCCC1=O` [N-methylpyrrolidone] stands 203.86 ± 0.2 °C.
